The source of these data is ChEMBL document CHEMBL1152311, “A multipronged approach to the study of peruvian ethnomedicinal plants: a legacy of the ICBG-Peru Project” (J Nat Prod, 2009).

The source made the active and inactive calls. The rule behind the calls is not given here. Where only a bound is given, the exact number is not on record here.

The nature of series [1]: Cytotoxicity against mouse 3T3 cells. The class given is cell-based. Particulars: BALB/3T3 clone A31 cells.
The subject of a further series is NCI-H460. Kind of series: Cytotoxicity against human H460 cells. The class given is functional.
The subject of a further series is DU-145. Nature of the series: Cytotoxicity against human DU145 cells. The class given is functional.
Another series relates to MCF7. Kind of series: Cytotoxicity against human MCF7 cells. The class given is functional.
The next series relates to M14. Nature of the series: Cytotoxicity against human M14 cells. The class given is functional.
The subject of a further series is HT-29. Kind of series: Cytotoxicity against human HT-29 cells. The series is classed as functional.
The test system of another series is PC-3. Kind of series: Cytotoxicity against human PC3 cells. The series is classed as functional.
For a further series, the system named is K562. Kind of series: Cytotoxicity against human K562 cells. The class given is functional.
A short description of series [2]: Cytotoxicity against african green monkey Vero cells. The class given is cell-based. Particulars: chlorocebus sabaeus.
A further series deals with ME-180. Nature of the series: Cytotoxicity against human ME180 cells. The series is classed as functional.
The species named for the next series is Mus musculus. Nature of the series: Wound healing activity in mouse. The class given is functional.
Series [3] deals with Saccharomyces cerevisiae. Kind of series: Antimicrobial activity against Saccharomyces cerevisiae RS322. The class given is functional.
Series [4] has as its system Saccharomyces cerevisiae. Kind of series: Antimicrobial activity against Saccharomyces cerevisiae RS321. The series is classed as functional.
The test system of the next series is Leishmania amazonensis. Kind of series: Antileishmanial activity against Leishmania amazonensis axenic amastigotes. The class given is functional.
Series [5] relates to Mycobacterium tuberculosis. Nature of the series: Antituberculosis activity against Mycobacterium tuberculosis H37Rv. The series is classed as functional, organism-based.
Another series concerns Trypanosoma cruzi. Nature of the series: Antitrypanosomal activity against Trypanosoma cruzi Tulahuen C4 transfected with beta-galactosidase. The series is classed as functional.

As to `COc1ccc(CCC(=O)c2c(O)cc(O)cc2OC)cc1`, the concentration for 50% growth inhibition (GI50) (in general, the concentration giving 50% growth inhibition) in series [1] worked out at 141 µM; in the series with NCI-H460, 148 µM; in the series on DU-145 it was 138 µM; in the series with MCF7, 75.7 µM; in the series with M14, 133 µM; in the series with HT-29, 117 µM. The results for the GI50 (with PC-3; with K562; in series [2]) were 153 µM, 24.5 µM and 134 µM, respectively.

Turning to `CC(C)=CCC[C@](C)(O)[C@H]1CC=C(C)CC1`, the GI50 in series [1] came out at 54.7 µM; in the series on NCI-H460, 32.8 µM; in the series on ME-180 it was 18.2 µM; in the series with DU-145, 25.8 µM; in the series on MCF7 it was 30 µM; in the series on M14, 15.1 µM. Besides, the GI50 with HT-29 stood at 28.9 µM; with PC-3 it was 28.5 µM; in the series on K562, 40.5 µM. For the same compound, in the series listed under Mus musculus, it took a dose of 155 mg/kg to reach the 50% effect level (ED50).

On to `COC(=O)C1=CO[C@H](C)[C@@H]2CN3CC[C@@]4(C(=O)Nc5ccccc54)[C@H]3C[C@@H]12` [UNCARINE E], for which the values for the IC12 with Saccharomyces cerevisiae [3] and with Saccharomyces cerevisiae [4] were 380 µM and 326 µM, respectively. The 50% growth inhibitory concentration (GI50) came to 62.4 µM in series [1], 46.1 µM in the series on NCI-H460, 67.9 µM in the series with ME-180 and 114 µM in the series on DU-145.

`C/C=C1/C(=O)O[C@]23C=C[C@@H]4C(C(=O)OC)=CO[C@H](O[C@@H]12)[C@@H]43` [PLUMERICIN] displayed an IC12 in the series on Saccharomyces cerevisiae [4] of 241 µM. Also, the GI50 in series [1] was 431 µM; with NCI-H460, 276 µM; in the series on ME-180 it was greater than 430 µM; with DU-145 it was greater than 430 µM; in the series with MCF7 it was greater than 430 µM; in the series on HT-29, greater than 430 µM. Also, the Activity in the series on Leishmania amazonensis is 5 µM. Moreover, the result in series [5] was inactive.

With `C[C@H](C/C=C\C(C)(C)OO)[C@H]1CC[C@@]2(C)[C@@H]3CC[C@H]4C(C)(C)[C@@H](O)CC[C@@]45C[C@@]35CC[C@]12C`, the GI50 was 82.6 µM in series [1]; 67.4 µM with NCI-H460; 78.7 µM in the series on DU-145; greater than 136 µM with MCF7; 58.6 µM in the series on M14; 65.2 µM in the series with HT-29. The GI50 in the series on PC-3 was greater than 136 µM; in the series on K562 it was 65.2 µM; in series [2] it was greater than 136 µM. Further, the Activity in the series on Leishmania amazonensis worked out at 5.2 µM. In [5], the result was inactive.

`C=CCOc1cc(OC)c(C(=O)/C=C/c2ccc(OC)cc2)c(OCC=C)c1`: the GI50 in series [1] was 107 µM; in the series with NCI-H460, 52.3 µM; with DU-145 it was 54.9 µM; with MCF7 it was 51 µM; in the series with M14 it was 72.2 µM; with HT-29 it was 74.3 µM. Besides, the GI50 came out at 47.3 µM in the series with PC-3 and 43.4 µM in the series with K562. The compound also gave an Activity with Trypanosoma cruzi of 1.5 µM.
